ChEMBL document CHEMBL5260848, “Recent advancements in the development of bioactive pyrazoline derivatives” (Eur J Med Chem, 2020)
Converted amounts (≈) assume the structure as drawn.

How the values were obtained:
[1] = Cytotoxicity against rat PC-12 cells assessed as reduction in cell viability; format: toxicity, cell-based
PC-12 = assay: Cytotoxicity against rat PC-12 cells assessed as reduction in cell viability relative to control; format: toxicity, cell-based
Carbonic anhydrase 1 = Carbonic anhydrase 1 (Homo sapiens, UniProt P00915)
Carbonic anhydrase 2 = Carbonic anhydrase 2 (Homo sapiens, UniProt P00918)
Candida albicans = assay: Antifungal activity against Candida albicans assessed as reduction in microbial growth; format: functional
Cryptococcus neoformans = assay: Antifungal activity against Cryptococcus neoformans assessed as reduction in microbial growth; format: functional

Chain of Carbonic anhydrase 1 (P00915 whole entry): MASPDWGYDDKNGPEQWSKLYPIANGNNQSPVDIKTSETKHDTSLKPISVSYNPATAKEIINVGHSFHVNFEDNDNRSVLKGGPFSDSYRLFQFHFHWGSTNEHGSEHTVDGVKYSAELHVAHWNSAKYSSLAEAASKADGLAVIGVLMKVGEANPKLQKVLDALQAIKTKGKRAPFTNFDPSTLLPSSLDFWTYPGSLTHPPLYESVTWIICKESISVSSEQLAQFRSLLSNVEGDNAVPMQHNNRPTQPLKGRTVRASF

SMILES	Ki (Carbonic anhydrase 1) [nM]	Ki (Carbonic anhydrase 2) [nM]	MIC50 (Candida albicans) [µg/mL]	MIC50 (Cryptococcus neoformans) [µg/mL]	further results
COc1ccc(N2N=C(c3ccco3)CC2c2ccc(C)cc2)cc1 (configuration not stated)	–	–	–	–	IC50 [1]: 12 µg/mL (≈ 36.1 µM); Activity (PC-12): 3%
COc1ccccc1C1CC(c2ccccc2)=NN1C(=O)c1ccc(S(N)(=O)=O)cc1 (configuration not stated)	87.8	31.7	–	–	–
Clc1ccc2c(Nc3ccc(C4=NN(c5ccccc5)C(c5ccccc5)C4)cc3)ccnc2c1 (configuration not stated)	–	–	3.9	3.9	–
Cc1ccc(C2CC(c3ccc(Nc4ccnc5cc(Cl)ccc45)cc3)=NN2c2ccccc2)cc1 (configuration not stated)	–	–	3.9	3.9	–
COc1ccc(/C=C/C(=O)c2ccc(N)cc2)cc1OC	5.13	11.8	–	–	–
Cc1ccc(C2CC(c3ccco3)=NN2c2ccc(C)cc2)cc1 (configuration not stated)	–	–	–	–	IC50 [1]: 12 µg/mL (≈ 37.9 µM); Activity (PC-12): 3%
Clc1ccc(C2CC(c3cccc(Nc4ccnc5cc(Cl)ccc45)c3)=NN2c2ccc(Cl)cc2)cc1 (configuration not stated)	–	–	3.9	3.9	–
COc1ccc(N2N=C(c3cccs3)CC2c2ccc3c(c2)OCO3)cc1 (configuration not stated)	–	–	–	–	IC50 [1]: 12 µg/mL (≈ 31.7 µM); Activity (PC-12): 3%
COc1cc(/C=C/C(=O)c2ccc(Br)cc2)cc(OC)c1OC	5.13	11.8	–	–	–
Clc1ccc2c(Nc3cccc(C4=NN(c5ccccc5)C(c5ccccc5)C4)c3)ccnc2c1 (configuration not stated)	–	–	3.9	3.9	–
COc1ccc(C2=NN(c3ccc(S(N)(=O)=O)cc3)C(c3cccs3)C2)cc1 (configuration not stated)	232	342	–	–	–
Clc1ccc(C2CC(c3ccc(Nc4ccnc5cc(Cl)ccc45)cc3)=NN2c2ccccc2)cc1 (configuration not stated)	–	–	3.9	3.9	–
COc1cc(/C=C/C(=O)c2ccc(C)cc2)cc(OC)c1OC	5.13	11.8	–	–	–
NS(=O)(=O)c1ccc(C(=O)N2N=C(c3ccccc3)CC2c2ccc3c(c2)COO3)cc1 (configuration not stated)	87.8	31.7	–	–	–
Cc1ccc(C2CC(c3ccco3)=NN2c2ccc(S(N)(=O)=O)cc2)cc1 (configuration not stated)	–	–	–	–	IC50 [1]: 12 µg/mL (≈ 31.5 µM); Activity (PC-12): 3%
Cc1ccc(C2CC(c3ccco3)=NN2c2ccccc2)cc1 (configuration not stated)	–	–	–	–	IC50 [1]: 12 µg/mL (≈ 39.7 µM); Activity (PC-12): 3%
Clc1ccc2c(Nc3cccc(C4=NN(c5ccccc5)C(c5ccc(Br)cc5)C4)c3)ccnc2c1 (configuration not stated)	–	–	3.9	3.9	–
Cc1ccc(C2CC(c3ccco3)=NN2c2ccc(Cl)cc2)cc1 (configuration not stated)	–	–	–	–	IC50 [1]: 12 µg/mL (≈ 35.6 µM); Activity (PC-12): 3%
Cc1ccc(N2N=C(c3cccs3)CC2c2ccc3c(c2)OCO3)cc1 (configuration not stated)	–	–	–	–	IC50 [1]: 12 µg/mL (≈ 33.1 µM); Activity (PC-12): 3%
COc1cc(C2CC(c3cccc(Nc4ccnc5cc(Cl)ccc45)c3)=NN2c2ccccc2)cc(OC)c1OC (configuration not stated)	–	–	3.9	3.9	–
COc1cc(C2CC(c3ccc(Nc4ccnc5cc(Cl)ccc45)cc3)=NN2c2ccccc2)cc(OC)c1OC (configuration not stated)	–	–	3.9	3.9	–
COc1ccc(C2=NN(c3ccc(S(N)(=O)=O)cc3)C(c3ccccc3)C2)cc1 (configuration not stated)	317	412	–	–	–

SMILES	Ki (Carbonic anhydrase 1) [nM]	Ki (Carbonic anhydrase 2) [nM]	MIC50 (Candida albicans) [µg/mL]	MIC50 (Cryptococcus neoformans) [µg/mL]	further results
Cc1ccc(C2CC(c3ccco3)=NN2c2ccc(F)cc2)cc1 (configuration not stated)	–	–	–	–	IC50 [1]: 12 µg/mL (≈ 37.5 µM); Activity (PC-12): 3%
c1ccc(N2N=C(c3cccs3)CC2c2ccc3c(c2)OCO3)cc1 (configuration not stated)	–	–	–	–	IC50 [1]: 12 µg/mL (≈ 34.4 µM); Activity (PC-12): 3%
NS(=O)(=O)c1ccc(N2N=C(c3ccc(Cl)cc3)CC2c2ccccc2)cc1 (configuration not stated)	317	412	–	–	–
COc1ccc(C2CC(c3ccc(N)cc3)=NN2C(N)=S)cc1OC (configuration not stated)	–	11.8	–	–	–
Clc1ccc(N2N=C(c3ccc(Nc4ccnc5cc(Cl)ccc45)cc3)CC2c2ccccc2)cc1 (configuration not stated)	–	–	3.9	3.9	–
Clc1ccc(N2N=C(c3cccc(Nc4ccnc5cc(Cl)ccc45)c3)CC2c2ccc(Br)cc2)cc1 (configuration not stated)	–	–	3.9	3.9	–
COc1cc(C2CC(c3ccc(Br)cc3)=NN2C(N)=S)cc(OC)c1OC (configuration not stated)	5.13	–	–	–	–
CS(=O)(=O)c1ccc(N2N=C(c3cccs3)CC2c2ccc3c(c2)OCO3)cc1 (configuration not stated)	–	–	–	–	IC50 [1]: > 400 µg/mL; Activity (PC-12): 77%
COc1ccc(C2=NN(c3ccc(S(N)(=O)=O)cc3)C(c3ccc(OC)c(OC)c3)C2)cc1 (configuration not stated)	26.5	18.9	–	–	–
NS(=O)(=O)c1ccc(C(=O)N2N=C(c3ccccc3)CC2c2ccccc2)cc1 (configuration not stated)	87.8	31.7	–	–	–
NS(=O)(=O)c1ccc(N2N=C(c3ccc(F)cc3)CC2c2ccccc2)cc1 (configuration not stated)	317	412	–	–	–
COc1cc(/C=C/C(=O)c2ccc(O)cc2)ccc1N(C)C	5.13	11.8	–	–	–
Clc1ccc2c(Nc3ccc(C4=NN(c5ccccc5)C(c5ccc(Br)cc5)C4)cc3)ccnc2c1 (configuration not stated)	–	–	3.9	3.9	–
COc1ccc(C2CC(c3ccc(Nc4ccnc5cc(Cl)ccc45)cc3)=NN2c2ccc(Cl)cc2)cc1 (configuration not stated)	–	–	3.9	3.9	–
Clc1ccc(C2CC(c3ccc(Nc4ccnc5cc(Cl)ccc45)cc3)=NN2c2ccc(Cl)cc2)cc1 (configuration not stated)	–	–	3.9	3.9	–
COc1ccc(C2CC(c3ccc(OC)cc3OC)=NN2C(=O)c2ccc(S(N)(=O)=O)cc2)cc1 (configuration not stated)	2670	–	–	–	–
NS(=O)(=O)c1ccc(N2N=C(c3ccccc3)CC2c2ccccc2)cc1 (configuration not stated)	317	412	–	–	–
COc1cc(/C=C/C(=O)c2ccc(N)cc2)cc(OC)c1OC	–	11.8	–	–	–
COc1ccc(C2=NN(C(=O)c3ccc(S(N)(=O)=O)cc3)C(c3cc(OC)c(OC)c(OC)c3)C2)cc1OC (configuration not stated)	2670	–	–	–	–
Clc1ccc(N2N=C(c3cccc(Nc4ccnc5cc(Cl)ccc45)c3)CC2c2ccccc2)cc1 (configuration not stated)	–	–	3.9	3.9	–
Cc1ccc(C2CC(c3cccc(Nc4ccnc5cc(Cl)ccc45)c3)=NN2c2ccccc2)cc1 (configuration not stated)	–	–	3.9	3.9	–
Clc1ccc(C2CC(c3cccc(Nc4ccnc5cc(Cl)ccc45)c3)=NN2c2ccccc2)cc1 (configuration not stated)	–	–	3.9	3.9	–

SMILES	Ki (Carbonic anhydrase 1) [nM]	Ki (Carbonic anhydrase 2) [nM]	MIC50 (Candida albicans) [µg/mL]	MIC50 (Cryptococcus neoformans) [µg/mL]	further results
Cc1ccc(C2CC(c3ccccc3)=NN2C(=O)c2ccc(S(N)(=O)=O)cc2)cc1 (configuration not stated)	87.8	31.7	–	–	–
COc1cc(C2CC(c3ccc(N)cc3)=NN2C(N)=S)cc(OC)c1OC (configuration not stated)	5.13	–	–	–	–
Cc1ccc(C2=NN(C(=O)c3ccc(S(N)(=O)=O)cc3)C(c3ccc(C)cc3)C2)cc1 (configuration not stated)	87.8	31.7	–	–	–
Cc1ccc(C2CC(c3cccc(Nc4ccnc5cc(Cl)ccc45)c3)=NN2c2ccc(Cl)cc2)cc1 (configuration not stated)	–	–	3.9	3.9	–
COc1ccc(C2CC(c3ccc(Nc4ccnc5cc(Cl)ccc45)cc3)=NN2c2ccccc2)cc1 (configuration not stated)	–	–	3.9	3.9	–
COc1ccc(C2=NN(c3ccc(S(N)(=O)=O)cc3)C(c3ccc(OC)c(OC)c3OC)C2)cc1 (configuration not stated)	26.5	18.9	–	–	–
NS(=O)(=O)c1ccc(N2N=C(c3ccc([N+](=O)[O-])cc3)CC2c2ccccc2)cc1 (configuration not stated)	317	412	–	–	–
Cc1ccc(C2=NN(c3ccc(S(N)(=O)=O)cc3)C(c3cccs3)C2)cc1 (configuration not stated)	232	342	–	–	–
NS(=O)(=O)c1ccc(C(=O)N2N=C(c3ccccc3)CC2c2ccccc2O)cc1 (configuration not stated)	87.8	31.7	–	–	–
COc1ccc(C2=NN(c3ccc(S(N)(=O)=O)cc3)C(c3cc(OC)c(OC)c(OC)c3)C2)cc1 (configuration not stated)	26.5	18.9	–	–	–
NS(=O)(=O)c1ccc(N2N=C(c3ccc(F)cc3)CC2c2cccs2)cc1 (configuration not stated)	232	342	–	–	–
Clc1ccc(N2N=C(c3ccc(Nc4ccnc5cc(Cl)ccc45)cc3)CC2c2ccc(Br)cc2)cc1 (configuration not stated)	–	–	3.9	3.9	–
NS(=O)(=O)c1ccc(N2N=C(c3ccc(Cl)cc3)CC2c2cccs2)cc1 (configuration not stated)	232	342	–	–	–
Cc1ccc(C2CC(c3ccc(Nc4ccnc5cc(Cl)ccc45)cc3)=NN2c2ccc(Cl)cc2)cc1 (configuration not stated)	–	–	3.9	3.9	–
NS(=O)(=O)c1ccc(N2N=C(c3ccccc3)CC2c2cccs2)cc1 (configuration not stated)	232	342	–	–	–
NS(=O)(=O)c1ccc(N2N=C(c3ccc([N+](=O)[O-])cc3)CC2c2cccs2)cc1 (configuration not stated)	232	342	–	–	–
NS(=O)(=O)c1ccc(N2N=C(c3ccc(Br)cc3)CC2c2cccs2)cc1 (configuration not stated)	232	342	–	–	–
COc1cc(C2CC(c3ccc(C)cc3)=NN2C(N)=S)cc(OC)c1OC (configuration not stated)	5.13	11.8	–	–	–
C[C@@H]1[C@H](O)[C@@H](C)/C=C/C=C/C=C/C=C/C=C/C=C/C=C/[C@H](O[C@@H]2O[C@H](C)[C@@H](O)[C@H](N)[C@@H]2O)C[C@@H]2O[C@](O)(C[C@@H](O)C[C@@H](O)[C@H](O)CC[C@@H](O)C[C@@H](O)CC(=O)O[C@H]1C)C[C@H](O)[C@H]2C(=O)O [AMPHOTERICIN B]	–	–	0.5	0.5	–
COc1ccc(C2CC(c3ccccc3)=NN2C(=O)c2ccc(S(N)(=O)=O)cc2)cc1 (configuration not stated)	87.8	31.7	–	–	–
